# Assay results taken from US11001615B2, “Mutated tau protein fragment and use thereof” (ADEL INC., priority 2016, dated 2021).
# Ends that are not written are not given here.
# Columns and labels:
# Assay type in all cases: in vivo
# [1] = tested on: Tau-P301L dementia mice; experiment: ELISA using plasma: antibody production against modified tau protein fragments; conditions: ELISA using plasma after final administration; fragment with KLH and aluminum adjuvant, IP
# Description: (§1) JNPL3 mice expressing Tau-P301L mutant gene were purchased from Taconic, and back-crossed with C57bl/6 mice for five generations in the experimental animal room of the Asan Institute for Life Sciences. Then, the mice were raised under a specific pathogen free (SPE) condition. For active immunization, the mice were administered, for six months starting from three months after birth at intervals of two weeks, two weeks, four weeks, four weeks, five weeks, four weeks, and one week in this order, the four modified tau protein fragments prepared in Preparation Example 1 together with keyhole limpet hemocyanin (KLH) as a carrier and an aluminum adjuvant. At this time, administration was carried out through intraperitoneal injection (IP injection). The dementia mice which were actively immunized by administration of the K280-ac fragment were designated as Tau-P301L-K280-ac.
# In order to identify whether antibodies against the four modified tau protein fragments prepared in Preparation Example 1 were produced, the respective modified tau protein fragments or the full-length tau protein was finally administered, and then ELISA was performed using plasma.
# [2] = tested on: Tau-P301L dementia mice; experiment: Fear conditioning experiment; conditions: actively immunized Tau-P301L dementia mice; normal mice about 150, Tau-P301L 100 or shorter
# Description: as §1
# A fear conditioning experiment was performed on the mice raised in Preparation Example 2. […]
# On the day before the fear conditioning experiment, the mice were allowed to become accustomed to a training situation by being placed in the training situation for 10 minutes. […] All tests were recorded on Limelight (Actimetrics) and a computer.
# On the next day, the mice were placed again in the experimental cage for 10 minutes and a baseline freezing time was measured while the beep sound was heard. […]
# [3] = Antibody production after primary and secondary boosting (vaccine comparison); conditions: compared with N-terminal fragment of tau protein
# Description: In addition, in order to identify whether the K280-ac fragment is effective as a vaccine, the N-terminal fragment and the K280-ac fragment of the tau protein having the amino acid sequence represented by SEQ ID NO: 31 were administered, and primary boosting and secondary boosting were performed. Then, these fragments were compared in terms of antibody production.
# [4] = tested on: Tau-P301L dementia mice; experiment: Grip strength test
# Description: as §1
# A grip strength test was performed to identify muscle strength of the mice. […] At this time, an iron bundle that weighs 40 g was used for the iron bundle. The mice produced in Preparation Example 2 were held by the tail end, and the forefeet of the mice were caused to be placed on the 40 g iron bundle so that the mice can grab the iron bundle. […] The time until the mice missed the iron bundle was measured and comparison was made for the respective mice.
# [5] = tested on: Tau-P301L dementia mice; experiment: Vertical grid test; conditions: normal mice 10 or shorter, Tau-P301L 5 or shorter
# Description: as §1
# A vertical grid test was performed on the mice raised in Preparation Example 2. […] Specifically, the mice were placed on the vertical grid device, and allowed to go up and down the vertical grid. The time until the mice dropped down from the grid was measured.
# [6] = tested on: Tau-P301L dementia mice; experiment: MR spectroscopy (MRS) of the hippocampus; conditions: hippocampus ROI; dementia mice about 50% decrease versus normal mice
# Description: as §1
# In order to identify a metabolic imaging index-improving effect following administration of the K280-ac fragment, MR spectroscopy (MRS) was performed on the Tau-P301L-K280-ac dementia mice, the P301L-K280-ac dementia mice, and the normal mice produced in Preparation Example 2. The hippocampus was designated as a region of interest (ROI) (FIG. 36).
# [7] = tested on: Tau-P301L dementia mice; experiment: Y-maze experiment; conditions: Tau-P301L 50% decrease in measurement time versus normal mice
# Description: as §1
# In addition, a Y-maze experiment was performed to identify restoration of cognitive function. Specifically, A, B, and C zones were set in a Y-shaped box, and the mice were allowed to freely move for 5 minutes in a state where the B zone was blocked.
# [8] = tested on: Tau-P301L dementia mice; experiment: Novel object recognition experiment; conditions: Tau-P301L 50% decrease versus normal mice
# Description: as §1
# In addition, a memory experiment was performed with novel object recognition. […] Two identical objects were placed in the white box, and then the time spent staying around each object was measured while allowing the mice to make exploration for 5 minutes. 4 hours later, one of the objects installed was replaced with another model, and movement of the mice and the time spent staying around the object were measured for 5 minutes.
# [9] = tested on: Tau-P301L dementia mice; experiment: qPCR of brain tissues for inflammation-related genes; conditions: brain tissue, compared with non-immunized dementia mice
# Description: as §1
# In order to identify an inflammation-improving effect following administration of the K280-ac fragment, brain tissues of the Tau-P301L-K280-ac dementia mice, the P301L-K280-ac dementia mice, and the normal mice produced in Preparation Example 2 were extracted, and qPCR was performed for inflammation-related genes.
substance,measurement,setting,value
Val-Gln-Ile-Ile-Asn-Lys-Lys-Leu-Asp-Leu-Ser-Asn (VQIINK(Ac)KLDLSN) [K280-ac],antibodies against the fragment produced,[1],well produced
same,freezing time,[2],about 150 seconds
same,antibody production,[3],higher antibody production than the N-terminal fragment
same,measured time for grab strength,"[4]; 40 g iron bundle, normal mice 10 or shorter, Tau-P301L 5 or shorter",about 12 seconds
same,"grip strength, change versus controls",[4]; actively immunized Tau-P301L dementia mice,restored to that of the normal mice
same,measured time on the vertical grid,[5],10 s
same,N-acetyl-aspartyl-glutamic acid (NAAG),[6],restored
same,cognitive function in the Y-maze,[7],restored
same,time spent staying around the novel object,[8],increased to a level which corresponds to that in the normal mice
same,IFN-γ gene,[9],decrease
same,IL-4 gene,[9],decrease
same,IL-12 gene,[9],increase
same,IL-22 gene,[9],decrease
